# Results from ChEMBL document CHEMBL5050851, “Compounds that induce ferroptic cell death” (2020).
# Active and inactive are the calls of the source. The calls are words filed in the database; no cut-off is given here.
# Key:
# HCT-116 [1] = assay: Antiproliferative activity against human HCT-116 cells assessed as cell death after 72 hrs by Alamar blue viability assay; assay type: functional, cell-based; settings: HCT-116, 72 h
# ES-2 [2] = assay: Antiproliferative activity against human ES2 cells assessed as cell death after 72 hrs by Alamar blue viability assay; assay type: functional, cell-based; settings: ES-2, 72 h
# ES-2 [3] = assay: Induction of apoptosis in human ES2 cells assessed as change in chromatin condensation; assay type: functional, cell-based
# HCT-116 [4] = assay: Induction of PARP-1 cleavage in human HCT-116 cells measured after 1 to 7 hrs; assay type: functional, cell-based; settings: time 1-7 hrs
# ES-2 [5] = assay: Induction of ROS-induced lipid peroxidation in human ES2 cells at 10 uM measured after 1 hr; assay type: functional, cell-based
# ES-2 [6] = assay: Induction of cell death in human ES2 cells at 5 to 25 uM in presence of 250 uM trolox and measured after 14 hrs; assay type: functional, cell-based; settings: dose 5-25 µM
# Staphylococcus aureus = assay: Antibacterial activity against Staphylococcus aureus; assay type: functional
# [7] = AUC in C57BL/6 mouse at 40 mg/kg, ip; assay type: ADME, organism-based; design: dose 40 mg/kg; settings: in vivo
# [8] = target: T1, Phospholipid hydroperoxide glutathione peroxidase GPX4 (Homo sapiens) (UniProt P36969); assay: Inhibition of GPX4 in human ES2 cells at 10 uM measured after 1 hr by phosphotidylcholine hydroperoxide (PCOOH) LC-MS based assay relative to control; assay type: cell-based
# T1 sequence (whole entry): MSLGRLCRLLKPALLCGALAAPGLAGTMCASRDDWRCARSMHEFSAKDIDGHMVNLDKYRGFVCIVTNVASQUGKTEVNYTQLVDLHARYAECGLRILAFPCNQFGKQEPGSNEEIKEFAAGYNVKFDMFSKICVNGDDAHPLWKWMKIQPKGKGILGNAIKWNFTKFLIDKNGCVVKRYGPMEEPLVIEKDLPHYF
# [9] = target: T2, Thioredoxin, mitochondrial (Homo sapiens) (UniProt Q99757); assay: Inhibition of human thioredoxin at 0.5 to 10 uM measured after 30 mins relative to control; settings: dose 0.5-10 µM
# T2 sequence (whole entry): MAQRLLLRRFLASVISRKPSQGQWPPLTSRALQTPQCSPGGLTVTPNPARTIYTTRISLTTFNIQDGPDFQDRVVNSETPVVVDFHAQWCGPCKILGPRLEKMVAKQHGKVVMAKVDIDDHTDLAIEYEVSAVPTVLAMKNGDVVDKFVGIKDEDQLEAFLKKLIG
# Escherichia coli = assay: Antibacterial activity against Escherichia coli; assay type: functional
# MIA PaCa-2 = assay: Antiproliferative activity against human MIA PaCa-2 cells at 10 uM assessed as time to induce 50% cell death measured by Annexin V/propidium iodide staining method; assay type: functional
# HCT-116 [10] = assay: Induction of cell death in human HCT-116 cells at 5 to 25 uM in presence of 100 uM DFO and measured after 10 hrs; assay type: functional, cell-based; settings: dose 5-25 µM
# 4T1 [11] = assay: Induction of cell death in mouse 4T1 cells at 5 to 25 uM in presence of 250 uM trolox and measured after 18 hrs; assay type: functional, cell-based; settings: dose 5-25 µM
# HCT-116 [12] = assay: Induction of ROS production in human HCT-116 cells at 5 to 25 uM measured by carboxy-H2DCFDA fluorescence assay; assay type: functional, cell-based; settings: dose 5-25 µM
# A549 [13] = assay: Induction of cell death in human A549 cells at 5 to 25 uM in presence of 100 uM DFO and measured after 12 hrs; assay type: functional, cell-based; settings: dose 5-25 µM
# [14] = Half-life in C57BL/6 mouse at 40 mg/kg, ip; assay type: ADME, organism-based; settings: in vivo
# HCT-116 [15] = assay: Induction of ROS-induced lipid peroxidation in human HCT-116 cells at 10 uM measured after 1 hr; assay type: functional, cell-based
# HCT-116 [16] = assay: Induction of cell death in human HCT-116 cells at 5 to 25 uM in presence of 5 mM NAC and measured after 10 hrs; assay type: functional, cell-based; settings: dose 5-25 µM
# ES-2 [17] = assay: Induction of cell death in human ES2 cells at 5 to 25 uM in presence of 2 uM ferrostatin-1 and measured after 14 hrs; assay type: functional, cell-based; settings: dose 5-25 µM
# HFF-1 = assay: Antiproliferative activity against human HFF-1 cells after 72 hrs by Alamar blue viability assay; assay type: functional, cell-based; settings: HFF-1, 72 h
# [18] = target: T2, Thioredoxin, mitochondrial (Homo sapiens); assay: Inhibition of thioredoxin in human HCT-116 cells at 20 uM relative to control; assay type: cell-based
# ES-2 [19] = assay: Induction of PARP-1 cleavage in human ES2 cells measured after 1 to 7 hrs; assay type: functional, cell-based; settings: time 1-7 hrs
# HCT-116 [20] = assay: Induction of cell death in human HCT-116 cells at 5 to 25 uM in presence of 2 uM ferrostatin-1 and measured after 10 hrs; assay type: functional, cell-based; settings: dose 5-25 µM
# 4T1 [21] = assay: Antitumor activity against mouse 4T1 cells xenografted immunodeficient SCID mouse assessed as tumor growth at 50 mg/kg, ip administered twice a week as 5 doses; assay type: functional, organism-based
# 4T1 [22] = assay: Induction of ROS-induced lipid peroxidation in mouse 4T1 cells at 10 uM pretreated with DFO and measured after 1 hr; assay type: functional, cell-based
# ES-2 [23] = assay: Induction of cell death in human ES2 cells at 5 to 25 uM in presence of 100 uM DFO and measured after 14 hrs; assay type: functional, cell-based; settings: dose 5-25 µM
# 4T1 [24] = assay: Induction of cell death in mouse 4T1 cells at 5 to 25 uM in presence of 2 uM ferrostatin-1 and measured after 18 hrs; assay type: functional, cell-based; settings: dose 5-25 µM
# MCF-10A = assay: Antiproliferative activity against human MCF-10A cells after 72 hrs by Alamar blue viability assay; assay type: functional, cell-based
# 4T1 [25] = assay: Induction of cell death in mouse 4T1 cells at 5 to 25 uM in presence of 100 uM DFO and measured after 18 hrs; assay type: functional, cell-based; settings: dose 5-25 µM
# 4T1 [26] = assay: Induction of ROS-induced lipid peroxidation in mouse 4T1 cells at 10 uM measured after 1 hr; assay type: functional, cell-based
# HCT-116 [27] = assay: Induction of ROS-induced lipid peroxidation in human HCT-116 cells at 10 uM pretreated with DFO and measured after 1 hr; assay type: functional, cell-based
# ES-2 [28] = assay: Induction of apoptosis in human ES2 cells assessed as change in cell membrane blebbing; assay type: functional, cell-based
# ES-2 [29] = assay: Induction of ROS production in human ES2 cells at 10 to 25 uM measured by MitoSox red fluorescence assay; assay type: functional, cell-based; settings: dose 10-25 µM
# HCT-116 [30] = assay: Antiproliferative activity against human HCT-116 cells at 10 uM assessed as time to induce 50% cell death measured by Annexin V/propidium iodide staining method; assay type: functional
# ES-2 [31] = assay: Antiproliferative activity against human ES2 cells at 10 uM pretreated with 25 uM pan-caspase inhibitor Q-VD-OPh and assessed as induction of cell death measured after 13 hrs; assay type: functional, cell-based
# [32] = Hemolytic activity in human RBC measured by hemolysis assay; assay type: toxicity, cell-based; settings: erythrocyte
# 4T1 [33] = assay: Antitumor activity against mouse 4T1 cells xenografted immunocompetent Balb/c mouse assessed as tumor growth inhibition at 50 mg/kg, ip administered twice a week as 5 doses; assay type: functional; settings: 4T1, ip, read-out: TGI
# HCT-116 [34] = assay: Induction of cell death in human HCT-116 cells at 5 to 25 uM in presence of 250 uM trolox and measured after 10 hrs; assay type: functional, cell-based; settings: dose 5-25 µM
# A549 [35] = assay: Induction of cell death in human A549 cells at 5 to 25 uM in presence of 250 uM trolox and measured after 12 hrs; assay type: functional, cell-based; settings: dose 5-25 µM
# ES-2 [36] = assay: Antiproliferative activity against human ES2 cells at 10 uM assessed as time to induce 50% cell death measured by Annexin V/propidium iodide staining method; assay type: functional
# ES-2 [37] = assay: Induction of ROS production in human ES2 cells at 5 to 25 uM measured by carboxy-H2DCFDA fluorescence assay; assay type: functional, cell-based; settings: dose 5-25 µM
# HCT-116 [38] = assay: Antiproliferative activity against human HCT-116 cells at 10 uM pretreated with 25 uM pan-caspase inhibitor Q-VD-OPh and assessed as induction of cell death measured after 13 hrs; assay type: functional, cell-based
# A549 [39] = assay: Induction of cell death in human A549 cells at 5 to 25 uM in presence of 5 mM NAC and measured after 12 hrs; assay type: functional, cell-based; settings: dose 5-25 µM
# ES-2 [40] = assay: Induction of ROS-induced lipid peroxidation in human ES2 cells at 10 uM pretreated with DFO and measured after 1 hr; assay type: functional, cell-based
# A549 [41] = assay: Induction of cell death in human A549 cells at 5 to 25 uM in presence of 2 uM ferrostatin-1 and measured after 12 hrs; assay type: functional, cell-based; settings: dose 5-25 µM
compound,measurement,setting,value
CO[C@H]1C[C@@]23CC[C@@H](C)[C@@](C)([C@H](OC(C)=O)C[C@@H](C4=CCn5c(=O)n(-c6ccccc6)c(=O)n5C4)[C@@H]2C)[C@]3(O)C1=O,IC50,HCT-116 [1],> 100 µM
same,IC50,ES-2 [2],> 100 µM
CO[C@H]1C[C@@]23CC[C@@H](C)[C@@](C)([C@H](OC(=O)c4ccco4)C[C@@H](C4=CCn5c(=O)n(-c6ccccc6)c(=O)n5C4)[C@@H]2C)[C@]3(O)C1=O,IC50,HCT-116 [1],> 100 µM
same,IC50,ES-2 [2],> 100 µM
C[C@@H]1CC[C@@]23C[C@H](O)C(=O)[C@@]2(O)[C@]1(C)[C@H](OC(=O)CCl)C[C@@H](C1=CCn2c(=O)n(-c4ccccc4)c(=O)n2C1)[C@@H]3C,Activity,ES-2 [3],inactive
same,Activity,HCT-116 [4],inactive
same,Activity,ES-2 [5],Active
same,Activity,ES-2 [6],inactive
same,MIC,Staphylococcus aureus,> 64 µg/mL
same,AUC,[7],7040 ng·h/mL
same,inhibition,[8],inactive
same,inhibition,[9],Active
same,MIC,Escherichia coli,> 64 µg/mL
same,Time,MIA PaCa-2,1.5 h
same,Activity,HCT-116 [10],inactive
same,Activity,4T1 [11],inactive
same,Activity,HCT-116 [12],Active
same,Activity,A549 [13],inactive
same,half-life,[14],9.96 min
same,Activity,HCT-116 [15],Active
same,Activity,HCT-116 [16],inactive
same,Activity,ES-2 [17],inactive
same,IC50,HFF-1,4.1 µM
same,inhibition,[18],Active
same,IC50,HCT-116 [1],3.5 µM
same,Activity,ES-2 [19],inactive
same,Activity,HCT-116 [20],inactive
same,Activity,4T1 [21],inactive
same,Activity,4T1 [22],inactive
same,Activity,ES-2 [23],inactive
same,Activity,4T1 [24],inactive
same,IC50,MCF-10A,3.1 µM
same,Activity,4T1 [25],inactive
same,IC50,ES-2 [2],1.6 µM
same,Activity,4T1 [26],Active
same,Activity,HCT-116 [27],inactive
same,Activity,ES-2 [28],inactive
same,Activity,ES-2 [29],Active
same,Time,HCT-116 [30],7 h
same,Activity,ES-2 [31],Active
same,Activity,[32],Non-Toxic
same,inhibition in vivo at 50 mg/kg,4T1 [33],40%
same,Activity,HCT-116 [34],inactive
same,Activity,A549 [35],inactive
same,Time,ES-2 [36],1 h
same,Activity,ES-2 [37],Active
same,Activity,HCT-116 [38],Active
same,Activity,A549 [39],inactive
same,Activity,ES-2 [40],inactive
same,Activity,A549 [41],inactive
CC1=CC(C)=[N+]2C1=Cc1ccc(CCC(=O)NCCCn3cc(CN4C(=O)C5CC=C([C@@H]6C[C@@H](OC(=O)CI)[C@]7(C)[C@H](C)CC[C@]8(C[C@H](O)C(=O)[C@]87O)[C@H]6C)CC5C4=O)nn3)n1[B-]2(F)F (some centres not stated),IC50,HCT-116 [1],15.7 µM
same,IC50,ES-2 [2],1.5 µM
CC(=O)O[C@H]1C[C@@]23CC[C@@H](C)[C@@](C)([C@H](OC(=O)CCl)C[C@@H](C4=CCn5c(=O)n(-c6ccccc6)c(=O)n5C4)[C@@H]2C)[C@]3(O)C1=O,IC50,HCT-116 [1],3.9 µM
same,IC50,ES-2 [2],1.4 µM
C=CC(=C)[C@@H]1C[C@@H](OC(=O)CCl)[C@]2(C)[C@H](C)CC[C@]3(C[C@H](O)C(=O)[C@]32O)[C@H]1C,IC50,ES-2 [2],6.7 µM
CC(=O)OCC(=O)O[C@@H]1C[C@@H](C2=CCn3c(=O)n(-c4ccccc4)c(=O)n3C2)[C@H](C)[C@@]23CC[C@@H](C)[C@]1(C)[C@]2(O)C(=O)[C@@H](O)C3,IC50,HCT-116 [1],> 100 µM
same,IC50,ES-2 [2],> 100 µM
